Source: patent US20230219965A1 (KSQ Therapeutics, Inc., priority 2020, published 2023)

Molecular target: USP1/UAF1 enzyme (Homo sapiens, UniProt O94782)
Test: USP1/UAF1 deubiquitination assay (ubiquitin-rhodamine 110 substrate)
Assay type: biochemical
Settings: read-out: USP1 IC50 (Ub-Rho)
Description: Certain Compounds of the Disclosure were assessed for USP1/UAF1 activity in a Ubiquitin Rhodamine assay modified from those described previously.
Deubiquitinase activity was measured using ubiquitin-rhodamine 110 as a substrate. Cleavage of the amide bond between rhodamine and the c-terminal glycine of ubiquitin yields an increase in fluorescence signal. The assay was conducted in 20 μl total volume of assay buffer (50 mM Tris-HCl, pH 7.8, 0.5 mM EDTA, 0.01% Bovine Serum Albumin, 1 mM DTT, 0.01% Tween-20), and 0.05 nM USP1/UAF1 enzyme. Reaction was initiated by addition of 150 nM Ubiquitin-rhodamine (Boston Biochem) substrate.
Compounds of the Disclosure, dissolved in DMSO were tested in dose response format, beginning at […].
The example compounds listed below were added to enzyme/assay buffer mix and incubated 10 min. Substrate mix was added, and reaction mix was read in kinetic mode for 30 min at Ex480/Em540 and IC50 response curves were plotted.
Data for all assay formats was calculated as percent inhibition compared with control wells. Percent inhibition was calculated using the following equation: % inhibition=100×[1−(X−min)/(max−min)], where X is the raw data readout, min is the average of the no enzyme control wells (n=32), max is the average of the DMSO control well (n=32). IC50 values were calculated using the standard four parameter curve fitting algorithm in either Prism GraphPad (La Jolla, Calif.) software, or Collaborative Drug Discovery (Burlingame, Calif.) CDD Vault. See Chem. Biol. 20(1): 55-62 (Jan. 24, 2013); Bioorg. Med. Chem. Lett. 23(20): 5660-5666 (Oct. 15, 2013).

Sequence of USP1/UAF1 enzyme (O94782 whole entry): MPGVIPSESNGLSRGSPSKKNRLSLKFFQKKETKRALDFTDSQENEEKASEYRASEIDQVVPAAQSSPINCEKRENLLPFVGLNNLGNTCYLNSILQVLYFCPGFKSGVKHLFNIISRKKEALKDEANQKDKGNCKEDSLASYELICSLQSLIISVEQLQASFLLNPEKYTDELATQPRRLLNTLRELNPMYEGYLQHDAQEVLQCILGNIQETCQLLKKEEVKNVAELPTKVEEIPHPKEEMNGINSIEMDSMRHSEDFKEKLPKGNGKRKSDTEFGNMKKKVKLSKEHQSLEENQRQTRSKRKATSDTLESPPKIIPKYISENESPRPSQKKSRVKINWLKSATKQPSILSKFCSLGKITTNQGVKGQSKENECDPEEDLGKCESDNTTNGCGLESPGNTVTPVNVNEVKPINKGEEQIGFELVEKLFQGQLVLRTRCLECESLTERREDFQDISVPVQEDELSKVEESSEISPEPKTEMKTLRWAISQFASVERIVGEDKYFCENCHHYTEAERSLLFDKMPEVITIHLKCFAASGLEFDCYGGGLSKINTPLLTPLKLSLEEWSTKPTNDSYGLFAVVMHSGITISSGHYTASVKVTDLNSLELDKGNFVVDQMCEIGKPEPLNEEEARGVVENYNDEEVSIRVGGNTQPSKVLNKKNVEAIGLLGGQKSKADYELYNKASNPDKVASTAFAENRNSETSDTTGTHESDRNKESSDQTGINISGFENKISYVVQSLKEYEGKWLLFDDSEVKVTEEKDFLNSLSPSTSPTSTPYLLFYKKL
Sequence of USP1/UAF1 enzyme (Q8TAF3 whole entry partner): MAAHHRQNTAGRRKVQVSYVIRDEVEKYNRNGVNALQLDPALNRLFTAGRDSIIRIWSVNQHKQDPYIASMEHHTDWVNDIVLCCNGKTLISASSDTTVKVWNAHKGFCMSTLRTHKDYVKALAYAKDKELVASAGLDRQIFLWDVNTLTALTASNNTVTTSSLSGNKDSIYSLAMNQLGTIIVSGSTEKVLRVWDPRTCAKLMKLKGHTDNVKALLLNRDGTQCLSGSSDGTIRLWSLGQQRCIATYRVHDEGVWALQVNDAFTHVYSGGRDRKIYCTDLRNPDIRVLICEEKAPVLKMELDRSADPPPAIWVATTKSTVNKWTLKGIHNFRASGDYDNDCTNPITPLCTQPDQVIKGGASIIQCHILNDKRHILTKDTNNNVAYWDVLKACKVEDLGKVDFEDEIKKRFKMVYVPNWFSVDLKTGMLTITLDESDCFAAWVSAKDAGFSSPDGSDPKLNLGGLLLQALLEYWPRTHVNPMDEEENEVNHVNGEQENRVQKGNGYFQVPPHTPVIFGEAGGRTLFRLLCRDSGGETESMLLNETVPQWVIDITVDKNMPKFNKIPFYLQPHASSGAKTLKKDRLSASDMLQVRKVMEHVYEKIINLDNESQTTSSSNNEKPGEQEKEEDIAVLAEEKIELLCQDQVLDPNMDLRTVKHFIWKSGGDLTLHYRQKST

| IC50 [nM] | SMILES |
| --- | --- |
| 100 to 500 | COCc1cccnc1-c1ccc(CN2C(=O)CCn3nc(-c4c(Cl)cnn4C(C)C)cc32)cc1Cl [Example 300] |
| 100 to 500 | COc1cc(C)cnc1-c1ccc(CN2C(=O)CCn3nc(-c4c(Cl)cnn4C(C)C)cc32)cc1Cl [Example 301] |
| 100 to 500 | CC(C)Oc1cccnc1-c1ccc(CN2C(=O)CCn3nc(-c4c(Cl)cnn4C(C)C)nc32)cc1Cl [Example 302] |
| 100 to 500 | CC(C)n1ccnc1-c1ccc(CN2C(=O)CCn3nc(-c4c(Cl)cnn4C(C)C)cc32)cc1Cl [Example 303] |
| 100 to 500 | COc1cccnc1-c1ccc(CN2C(=O)CCn3nc(-c4c(OC)ncnc4C4CC4)nc32)cc1Cl [Example 306] |
| 100 to 500 | COc1cccnc1-c1ccc(CN2C(=O)CCn3nc(-c4c(OC)ncnc4C4CC4)nc32)cc1F [Example 308] |
| > 500 | COc1cc(CN2C(=O)CCn3nc(-c4c(Cl)cnn4C(C)C)cc32)ccc1-c1ncccc1Cl [Example 311] |
| 100 to 500 | COc1cccnc1-c1ccc(CN2C(=O)CCn3nc(-c4c(OC)ncnc4C4CC4)cc32)cc1Cl [Example 313] |
| > 500 | CCNc1ccc(-c2ccc(CN3C(=O)CCn4nc(-c5c(Cl)cnn5C(C)C)cc43)cc2Cl)nn1 [Example 314] |
| > 500 | CC(C)n1cnc(-c2ccc(CN3C(=O)CCn4nc(-c5c(Cl)cnn5C(C)C)cc43)cc2Cl)c1 [Example 315] |
| 100 to 500 | CC(C)n1ncc(Cl)c1-c1cc2n(n1)CCC(=O)N2Cc1ccc(-c2nc(C(F)(F)F)ccc2F)c(Cl)c1 [Example 316] |
| 100 to 500 | COc1cccnc1-c1ccc(CN2C(=O)CCn3nc(-c4c(OC)ncnc4C4CC4)cc32)cc1F [Example 317] |
| > 500 | COc1cncnc1-c1ccc(CN2C(=O)CCn3nc(-c4c(Cl)cnn4C(C)C)cc32)cc1Cl [Example 318] |
| > 500 | COc1ccc(-c2ccc(CN3C(=O)CCn4nc(-c5c(Cl)cnn5C(C)C)cc43)cc2Cl)nn1 [Example 319] |
| 100 to 500 | CC(C)n1ncc(Cl)c1-c1cc2n(n1)CCC(=O)N2Cc1ccc(-c2ccn(S(=O)(=O)N(C)C)n2)c(Cl)c1 [Example 320] |
| 100 to 500 | CC(C)n1ncc(Cl)c1-c1nc2n(n1)CCC(=O)N2Cc1ccc(-c2ncccc2OCC(F)F)cc1 [Example 322] |
| 100 to 500 | CCn1cc(C(F)(F)F)nc1-c1ccc([C@@H](C)N2C(=O)CCn3nc(-c4c(C#N)cnn4C(C)C)cc32)cc1F [Example 326, (R)-5-(4-(1-(4-(1-ethyl-4-(trifluoromethyl)-1H-imidazol-2-yl)-3-fluorophenyl)ethyl)-5-oxo-4,5,6,7-tetrahydropyrazolo[1,5-α]pyrimidin-2-yl)-1-isopropyl-1H-pyrazole-4-carbonitrile] |
| 100 to 500 | CCn1cc(C(F)(F)F)nc1-c1ccc(CN2C(=O)CCn3nc(-c4c(OC(F)F)cnn4C(C)C)cc32)cc1F [Example 329, 2-(4-(difluoromethoxy)-1-isopropyl-1H-pyrazol-5-yl)-4-(4-(1-ethyl-4-(trifluoromethyl)-1H-imidazol-2-yl)-3-fluorobenzyl)-6,7-dihydropyrazolo[1,5-α]pyrimidin-5(4H)-one] |
| < 100 | CC(C)n1cc(C(F)(F)F)nc1-c1ccc(Cn2c(=O)ccn3nc(-c4c(OC(F)F)ncnc4C4CC4)nc23)cc1 [Example 344, 2-(4-cyclopropyl-6-(difluoromethoxy)pyrimidin-5-yl)-4-(4-(1-isopropyl-4-(trifluoromethyl)-1H-imidazol-2-yl)benzyl)-[1,2,4]triazolo[1,5-a]pyrimidin-5(4H)-one] |
| > 500 | CCn1cc(C(F)(F)F)nc1-c1cnc(CN2C(=O)CCn3nc(-c4c(Cl)cnn4C(C)C)cc32)nc1 [Example 354, 2-(4-chloro-1-isopropyl-1H-pyrazol-5-yl)-4-((5-(1-ethyl-4-(trifluoromethyl)-1H-imidazol-2-yl)pyrimidin-2-yl)methyl)-6,7-dihydropyrazolo[1,5-α]pyrimidin-5(4H)-one] |
| 100 to 500 | CCn1cc(C(F)(F)F)nc1-c1ccc(N(C)C2CCCc3nn(-c4ccccc4C(C)C)cc32)cc1F (centres unmarked) [Example 356, N-(4-(1-ethyl-4-(trifluoromethyl)-1H-imidazol-2-yl)-3-fluorophenyl)-2-(2-isopropylphenyl)-N-methyl-4,5,6,7-tetrahydro-2H-indazol-4-amine] |
| 100 to 500 | CCn1cc(C(F)(F)F)nc1-c1ccc(CC2NCCn3nc(-c4c(Cl)cnn4C(C)C)cc32)cc1 (stereo not drawn) [Example 359, 2-(4-chloro-1-isopropyl-1H-pyrazol-5-yl)-4-(4-(1-ethyl-4-(trifluoromethyl)-1H-imidazol-2-yl)benzyl)-4,5,6,7-tetrahydropyrazolo[1,5-α]pyrazine] |
| 100 to 500 | CCn1cc(C(F)(F)F)nc1-c1ccc(CC2NCCn3nc(-c4c(OC)ncnc4C4CC4)cc32)cc1 (centres unmarked) [Example 361, 2-(4-cyclopropyl-6-methoxypyrimidin-5-yl)-4-(4-(1-ethyl-4-(trifluoromethyl)-1H-imidazol-2-yl)benzyl)-4,5,6,7-tetrahydropyrazolo[1,5-a]pyrazine] |
| < 100 | CC(CF)n1cc(C(F)(F)F)nc1-c1ccc(CN2C(=O)CCn3nc(-c4c(OC(F)F)ncnc4C4CC4)nc32)cc1 (centres unmarked) [Example 366, 2-(4-cyclopropyl-6-(difluoromethoxy)pyrimidin-5-yl)-4-(4-(1-(1-fluoropropan-2-yl)-4-(trifluoromethyl)-1H-imidazol-2-yl)benzyl)-6,7-dihydro-[1,2,4]triazolo[1,5-a]pyrimidin-5(4H)-one] |
| < 100 | O=C1CCn2nc(-c3c(OC(F)F)ncnc3C3CC3)nc2N1Cc1ccc(-c2nc(C(F)(F)F)cn2CCF)cc1 [Example 367, 2-(4-cyclopropyl-6-(difluoromethoxy)pyrimidin-5-yl)-4-(4-(1-(2-fluoroethyl)-4-(trifluoromethyl)-1H-imidazol-2-yl)benzyl)-6,7-dihydro-[1,2,4]triazolo[1,5-a]pyrimidin-5(4H)-one] |
| < 100 | Cn1cc(C(F)(F)F)nc1-c1ccc(CN2C(=O)CCn3nc(-c4c(OC(F)F)ncnc4C4CC4)nc32)cc1 [Example 368, 2-(4-cyclopropyl-6-(difluoromethoxy)pyrimidin-5-yl)-4-(4-(1-methyl-4-(trifluoromethyl)-1H-imidazol-2-yl)benzyl)-6,7-dihydro-[1,2,4]triazolo[1,5-a]pyrimidin-5(4H)-one] |
| < 100 | CC(C)n1cc(C(F)(F)F)nc1-c1ccc(CN2C(=O)CCn3nc(-c4c(OC(F)F)ncnc4C4CC4)nc32)cc1 [Example 369, 2-(4-cyclopropyl-6-(difluoromethoxy)pyrimidin-5-yl)-4-(4-(1-isopropyl-4-(trifluoromethyl)-1H-imidazol-2-yl)benzyl)-6,7-dihydro-[1,2,4]triazolo[1,5-a]pyrimidin-5(4H)-one] |
| < 100 | COc1ncnc(C2CC2)c1-c1nc2n(n1)CCC(=O)N2C(C)c1ccc(-n2nc(C(F)(F)F)cc2OC)cc1 (centres unmarked) [Example 372, 2-(4-cyclopropyl-6-methoxypyrimidin-5-yl)-4-(1-(4-(5-methoxy-3-(trifluoromethyl)-1H-pyrazol-1-yl)phenyl)ethyl)-6,7-dihydro-[1,2,4]triazolo[1,5-a]pyrimidin-5(4H)-one] |
| 100 to 500 | CCn1cc(C(F)(F)F)nc1-c1ccc(CN2C(=O)CCn3nc(-c4c(C5CC5)ccnc4OC(F)F)nc32)cc1 [Example 373, 2-(4-cyclopropyl-2-(difluoromethoxy)pyridin-3-yl)-4-(4-(1-ethyl-4-(trifluoromethyl)-1H-imidazol-2-yl)benzyl)-6,7-dihydro-[1,2,4]triazolo[1,5-a]pyrimidin-5(4H)-one] |
